# Assays:
# Assay type in all cases: in vivo, rat
# ZDF rats [1] = assay: Intervention treatment with Pioglitazone in ZDF rats: post-prandial blood and plasma parameters; settings: for average plasma TG level: at the end of treatment
# Procedure: ZDF and ZL rats were ordered at the age of 5 W. After arrival and following 1 week of adaptation, 1 ml of blood was collected retro-orbitally after a short narcosis (isoflurane) in 6 W-old rats. […] A group of 10 ZL rats was formed and followed as a control group along the study duration (FIG. 3). Three groups of ZDF rats receive either vehicle (untreated) or Pioglitazone (treated) as food Admix. In each untreated/treated group of ZDF rats, one is fed a high fat diet during 11 weeks (group_full), during 4 weeks (group_mild) or during 2 weeks (group_low). Treatment was administered orally and prepared as food-admix. This mode of administration was preferred over oral gavage to reduce stress to the animals, avoid dosing errors and minimize handling. Pioglitazone (sufficient for 90 kg food) was dissolved in 18 liters of water. For the three treatment groups of 10 rats each, 6 liters of solution was combined with 30 kg of the diabetogenic diet (KLIBA 2437 with 7% of fat) or 12 liters were mixed with 60 Kg of the chow diet (Kliba 3436). The food was carefully dried at a temperature not exceeding 40° C. and then pelleted. […] The graphs and tables present the data according to expected daily dose. […] Blood sampling was always performed in the morning (9-11 am) 2-to-5 hours after feeding session and 2 h after last oral dosing (food was removed at 7:00 am). Blood (≈200 μl) was harvested retro-orbitally from slightly anesthetized rats (isoflurane) into tubes containing EDTA and kept on ice bed until centrifugation (6000 RPM for 20 minutes at 4° C.). […] Main plasma biochemical parameters (glucose(Gluco-quant, e.g. […] Quantification of HbA1c (%) was performed in whole blood, using an immuno-turbidimetric assay (Tina-quant, e.g. 11822039 from Roche Molecular Diagnostics). Glycosylated haemoglobin (HbA1c) is formed by the non-enzymatic covalent attachment of glucose to normal haemoglobin (HbA). […] HbA1c is a predictor of diabetic complications and interventions that reduce HbA1c correspondingly reduce the risk of complications (UKPDS, 1998). […] Commercially available ELISA kits (LINCO®) were used to quantify plasma concentration of insulin and adiponectin. Adiponectin is an adipokine which is […] and fasting plasma insulin concentration (Goldstein, 2002). Adiponectin plasma concentrations are decreased in […] patients and despite the fact that it is produced by adipocytes, as an individual becomes more obese, the adiponectine is decreased and insulin resistance increases ([…] et al., 1999).
# ZDF rats [2] = assay: Oral glucose tolerance test (OGTT) with fasting parameters and HOMA in Pioglitazone-treated ZDF rats; settings: for HOMA (insulin resistance index) / fasting insulin levels: after 6 weeks of treatment
# Procedure: ZDF and ZL rats were ordered at the age of 5 W. After arrival and following 1 week of adaptation, 1 ml of blood was collected retro-orbitally after a short narcosis (isoflurane) in 6 W-old rats. […] A group of 10 ZL rats was formed and followed as a control group along the study duration (FIG. 3). Three groups of ZDF rats receive either vehicle (untreated) or Pioglitazone (treated) as food Admix. In each untreated/treated group of ZDF rats, one is fed a high fat diet during 11 weeks (group_full), during 4 weeks (group_mild) or during 2 weeks (group_low). Treatment was administered orally and prepared as food-admix. This mode of administration was preferred over oral gavage to reduce stress to the animals, avoid dosing errors and minimize handling. Pioglitazone (sufficient for 90 kg food) was dissolved in 18 liters of water. For the three treatment groups of 10 rats each, 6 liters of solution was combined with 30 kg of the diabetogenic diet (KLIBA 2437 with 7% of fat) or 12 liters were mixed with 60 Kg of the chow diet (Kliba 3436). The food was carefully dried at a temperature not exceeding 40° C. and then pelleted. […] The graphs and tables present the data according to expected daily dose. […] Blood was then collected in conscious animals (tail vein) for baseline glucose and insulin measurements. […] Studying the evolution of blood glucose concentration along time after a load of glucose will give information about the ability of the organism to use glucose. Using the trapezoidal rule, glucose tolerance was calculated as area under the curve (AUC) of glucose concentration during 120 min and the change from baseline was calculated (delta AUC). HOMA index is also assessed during the OGTT by considering fasting insulin and fasting blood glucose (FBG) levels. HOMA: [FBG (mM)*(Fasting Insulin (μU))/22.5]. HOMA-index translates peripheral insulin resistance. Measurement of insulin was performed using Mercodia Rat Insulin ELISA kit.
# [3] = Body weight, food intake and water intake of Pioglitazone-treated ZDF rats; settings: ZDF rats group_low, group_mild and group_full; chronic treatment (7 weeks), 10 mg/kg/d food-admix
# Procedure: ZDF and ZL rats were ordered at the age of 5 W. After arrival and following 1 week of adaptation, 1 ml of blood was collected retro-orbitally after a short narcosis (isoflurane) in 6 W-old rats. […] A group of 10 ZL rats was formed and followed as a control group along the study duration (FIG. 3). Three groups of ZDF rats receive either vehicle (untreated) or Pioglitazone (treated) as food Admix. In each untreated/treated group of ZDF rats, one is fed a high fat diet during 11 weeks (group_full), during 4 weeks (group_mild) or during 2 weeks (group_low). Treatment was administered orally and prepared as food-admix. This mode of administration was preferred over oral gavage to reduce stress to the animals, avoid dosing errors and minimize handling. Pioglitazone (sufficient for 90 kg food) was dissolved in 18 liters of water. For the three treatment groups of 10 rats each, 6 liters of solution was combined with 30 kg of the diabetogenic diet (KLIBA 2437 with 7% of fat) or 12 liters were mixed with 60 Kg of the chow diet (Kliba 3436). The food was carefully dried at a temperature not exceeding 40° C. and then pelleted. […] The graphs and tables present the data according to expected daily dose. […] Body weight and food consumption were recorded with an on-line data acquisition system ([…]) using electronic balances.
smiles,measurement,setting,value
"CCc1ccc(CCOc2ccc(CC3SC(=O)NC3=O)cc2)nc1.Cl (racemic) [Pioglitazone, (±)-5-[[4-[2-(5-ethyl-2-pyridinyl)ethoxy]phenyl]methyl]-2,4-]",plasma total cholesterol levels,ZDF rats [1]; any of the treatment groups,did not change
same,reduction of plasma triglyceride levels compared to vehicle,ZDF rats [1]; group_full (fully diabetic ZDF rats),69.5±5.2%
same,HbA1C,"ZDF rats [1]; group_full ZDF rats, 10 mg/kg",significant reduction
same,blood glucose levels,"ZDF rats [1]; group_full ZDF rats, apparent after 2 weeks, partially maintained, 10 mg/kg",strongly reduced
same,hyperinsulinemia,"ZDF rats [1]; group_full ZDF rats, at the beginning of treatment, effect gone after 5 weeks",significantly reduced
same,average plasma TG level,ZDF rats [1]; group_full,2.8 ± 0.5 mM
same,plasma TG levels,"ZDF rats [1]; group_full, compared with ZL 1.1±0.1",2.9 ± 0.6 mM
same,plasma NEFA levels,"ZDF rats [1]; group_full, data not shown",moderate improvement
same,hypertriglyceridemia,ZDF rats [1]; group_low,almost completely and immediately normalized
same,development of hyperglycaemia and increase in HbA1c,"ZDF rats [1]; group_low (moderately diabetic ZDF rats), values similar to untreated ZL rats",fully prevented
same,average plasma TG level,ZDF rats [1]; group_low,1.6 ± 0.1 mM
same,insulin levels,"ZDF rats [1]; group_low, end of the 7 week treatment period, ZL 0.8±0.1",2.1 ± 0.2 ng/mL
same,hyperinsulinemia,"ZDF rats [1]; group_low, starting at week 2 of treatment, maintained until end of study",strongly reversed
same,improvement of glucose tolerance (AUC) compared to vehicle,"ZDF rats [2]; group_full, OGTT after 6 weeks of treatment",31%
same,HOMA (insulin resistance index),ZDF rats [2]; group_full,14.1±2.7
same,fasting insulin levels,ZDF rats [2]; group_full,2.0 ± 0.4 ng/mL
same,FBG,"ZDF rats [2]; group_full, after 7 weeks of treatment",6.7 ± 0.9 mM
same,AUC reduced compared to vehicle,"ZDF rats [2]; group_low, OGTT after 6 weeks of treatment",36%
same,glucose excursion AUC,"ZDF rats [2]; group_low, OGTT after 6 weeks of treatment, ZL 779±15",1000±48
same,fasting insulin levels,ZDF rats [2]; group_low,1.7 ng/mL
same,HOMA (insulin resistance index),"ZDF rats [2]; group_low, ZL 2.0±0.1",9.4±0.8
same,FBG,"ZDF rats [2]; group_low, vehicle 6.9±0.4, ZL 4.3±0.0",5.1 ± 0.1 mM
same,improvement of glucose tolerance (AUC) compared to vehicle,"ZDF rats [2]; group_mild, OGTT after 6 weeks of treatment",29%
same,HOMA (insulin resistance index),ZDF rats [2]; group_mild,10.9±1.9
same,fasting insulin levels,ZDF rats [2]; group_mild,1.6 ± 0.3 ng/mL
same,FBG,"ZDF rats [2]; group_mild, after 7 weeks of treatment",6.6 ± 1.3 mM
same,increase in BW versus vehicle,[3],≈ 30%
